These results are taken from US6143730A, “Preparation and use of sulfated oligosaccharides” (priority 1995, dated 2000).

Values after ≈ are worked out from the molar mass of the structure shown. Read-outs that look alike come from different tables or passages of the source.

Assay [1] has as its system thrombin time and activated partial thromboplastin time. The experiment in a line: Anticoagulant activity (thrombin time and activated partial thromboplastin time). The settings on record: percentage of heparin activity (100%). The format is biochemical. As to the method:
The anticoagulant activity of each sulfated oligosaccharide was assessed as previously described (35), using both thrombin time and activated partial thromboplastin time procedures. The activity of each preparation was compared with a heparin control and anticoagulant activity expressed as a percentage of heparin activity.

The target in assay [2] is T1, human platelet heparanase (Homo sapiens, UniProt Q9Y251).
T1 construct: from tissue; host or cells: human platelets
T1 sequence (Q9Y251 158-543 limits assumed): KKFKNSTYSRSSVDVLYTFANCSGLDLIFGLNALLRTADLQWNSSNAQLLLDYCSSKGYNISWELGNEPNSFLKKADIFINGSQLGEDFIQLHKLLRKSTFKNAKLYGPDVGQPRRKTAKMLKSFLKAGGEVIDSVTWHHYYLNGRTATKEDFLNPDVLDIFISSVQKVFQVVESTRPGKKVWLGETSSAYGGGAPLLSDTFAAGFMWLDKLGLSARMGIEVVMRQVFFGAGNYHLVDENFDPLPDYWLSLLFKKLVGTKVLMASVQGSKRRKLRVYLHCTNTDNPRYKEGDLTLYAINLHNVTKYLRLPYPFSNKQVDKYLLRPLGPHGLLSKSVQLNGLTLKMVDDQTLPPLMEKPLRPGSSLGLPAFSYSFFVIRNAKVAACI
T1 sequence (Q9Y251 36-109 limits assumed): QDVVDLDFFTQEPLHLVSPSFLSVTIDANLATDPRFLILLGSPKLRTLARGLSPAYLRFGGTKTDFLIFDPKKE
In words: Heparanase inhibition assay. It is filed as biochemical. From the text:
The heparanase assay is based on the observation that the serum protein, histidine-rich glycoprotein (HRG), binds to heparan sulfate chains and masks the heparanase cleavage site. Based on the finding that heparanase-cleaved heparan sulfate fails to bind to HRG a heparanase assay has been developed which involves digesting ^3 H-labelled heparan sulfate chains with heparanase, binding the digested heparan sulfate to HRG coupled beads and measuring unbound ^3 H label. With increasing digestion of the substrate an increasing amount of ^3 H label fails to bind to the HRG beads.
Initially, bovine intestinal heparan sulfate (Mr av 32 kDa) was partially de-N-acetylated by heating in hydrazine hydrate (36) and re-acetylated with ^3 H-acetic anhydride.
Activity was determined by the rate of production of smaller (approx 5 kDa) heparan sulfate fragments that were not bound following passage of the incubation mixture (100 μl) through HRG-Sepharose mini-columns (200 μl packed beads) which retained the larger uncleaved and partially cleaved substrate.
In heparanase-inhibition assays, different concentrations of inhibitor were added to the enzyme prior to addition of radiolabelled substrate, the inhibitor being retained in the reaction mixture throughout the incubation period.

In assay [3] the target is bFGF (Homo sapiens, UniProt P09038). In words: Binding of BALB/c 3T3 cells (cell surface heparan sulfate) to immobilised bFGF. It is filed as cell-based. Conditions: binding of mouse 3T3 cells to immobilised bFGF. The protocol:
(§1) The FGF-heparan sulfate interaction was assessed, as reported earlier (39), by measuring the binding of BALB/c 3T3 fibroblasts to PVC immobilised FGFs, cell binding being detected by Rose Bengal staining of adherent cells. Sulfated oligosaccharides were examined for their ability to inhibit this cell adhesion process, which is totally dependent upon heparan sulfate structures on the surface of BALB/c 3T3 cells (39).

Assay [4] concerns the target aFGF (Homo sapiens, UniProt P05230). The experiment in a line: Binding of BALB/c 3T3 cells (cell surface heparan sulfate) to immobilised aFGF. The settings on record: binding of mouse 3T3 cells to immobilised aFGF. It is filed as cell-based. The protocol:
as §1

The test system of assay [5] is air pouch inflammation. The experiment in a line: Air pouch inflammation model (thioglycollate). Conditions: 25 mg/kg subcut., ± SEM. The format is in vivo, mouse. The protocol: The assay is based on a previously reported procedure (40). Subcutaneous air pouches were formed on the backs of mice by injecting 5 ml of sterile air below the skin of a shaved area between the scapulae of an anaesthetised mouse on day 1. On day 3 the pouch was reinflated by the injection of 2.5 ml of air. Inflammation was induced on day 6 by injecting directly into the pouch 1.0 ml of 56 mg/ml thioglycollate or 1.0 ml of saline as a control. Approximately 17-20 hrs after thioglycollate injection the animals were killed by cervical dislocation and the cellular contents of the pouch retrieved by the injection of 2.5 ml of ice cold PBS/5% FCS. Sulfated oligosaccharides were tested for their ability to inhibit the inflammatory reaction by being injected subcut. (50 μl in PBS) in a separate site immediately following administration of the thioglycollate. Prednisolone was used as a control anti-inflammatory drug, being injected subcut. in oil at 25 mg/kg. The total cellular contents of each pouch was determined using a Coulter Counter and different leukocyte subpopulations were assessed by immunofluorescent flow cytometry.

In assay [6] the test system is human angiogenesis in vitro. The experiment in a line: Human angiogenesis assay (placental blood vessel fragments in fibrin gel). The format is cell-based. Conditions: for inhibition of human angiogenesis: in words. The protocol: The assay method used is described in International Patent Application No. PCT/AU95/00105, the disclosure of which is incorporated herein by reference. Blood vessels, approx 1-2 mm in diameter and 2-5 cm in length, were excised from the surface of human placentas within 6 hours of birth. The vessels were placed in Hank's BSS containing […] of fungizone and cut into 1-2 mm length fragments using fine dissecting forceps and iridectomy scissors. Vessel fragments were freed of residual clots and soaked in Hank's BSS before use. Dissecting and sectioning of vessels was performed with the aid of a magnifier lamp (Maggylamp, Newbound, Balmain, NSW, Australia). Similar angiogenic responses were obtained from blood vessels of venular and arterial origin but, for each assay, vessel fragments from only one vessel were used.
Angiogenesis assays were performed in 24 or 48 well culture plates (Costar, Cambridge, Mass.). In the 24 well format, 30 μl of bovine thrombin (50 NIH units/ml in 0.15 M NaCl; Sigma Chemical Co., St Louis, Mo.) was added to each well followed by 1.0 ml/well of 3 mg/ml bovine fibrinogen (Sigma) in Medium 199. The thrombin and fibrinogen were mixed rapidly and one vessel fragment quickly placed in the centre of the well before clot formation. Usually fibrin gel formation occurred in 30 seconds and the vessel fragment was left suspended in the gel. Following gel formation 1.0 ml/well of Medium 199 supplemented with 20% foetal calf serum (FCS), 0.2 mg ε-amino caproic acid, L-glutamine and antibiotics (gentamycin and fungazone) was added. In the 48 well format all reagent volumes were halved. Vessels were cultured at 37° C. in a humidified environment for 14-21 days with the medium being changed twice weekly. Angiogenesis was quantified by computer based image analysis, using NIH Image software, of digital images of the cultures obtained with a Dycam digital camera mounted on an inverted microscope (Olympus, Tokyo, Japan).

Assay [7] has as its system rat mammary adenocarcinoma 13762 MAT. In words: Metastasis assay (lung metastases of 13762 MAT). It is filed as in vivo. Conditions: for Metastasis (% Control): 13762 MAT cells i.v., 2 mg/rat at time of tumour cell injection, lungs, ± SEM (n = 4). As to the method: The antimetastatic activity of the different sulfated oligosaccharides was assessed using the highly metastatic rat mammary adenocarcinoma 13762 MAT (35). The tumour cells were maintained in vitro as previously described (35). Female Fisher 344 rats, (10-13 weeks of age) were injected i.v. with 2×10^5 13762 MAT cells in 0.6 ml RPMI 1640 medium containing 10% FCS. At the time of tumour cell injection animals were also injected with 2 mg of sulfated oligosaccharide, similar results being obtained if the oligosaccharide was injected i.v., i.p. or subcut. Lungs were removed from the rats 13 days following tumour cell injection, placed in Bouin's solution for at least 24 hours and lung metastases then assessed under a dissecting microscope. The number of lung metastases in sulfated oligosaccharide treated rats was compared with that observed in control animals, with a minimum of four animals being included in each group.

The test system of assay [8] is human angiogenesis in vitro. The settings on record: reference 42; cited from earlier work.
For assay [9], the target named is T1, human platelet heparanase. Conditions: reference 42; cited from earlier work.

Chain of bFGF (P09038 134-288, species assumed): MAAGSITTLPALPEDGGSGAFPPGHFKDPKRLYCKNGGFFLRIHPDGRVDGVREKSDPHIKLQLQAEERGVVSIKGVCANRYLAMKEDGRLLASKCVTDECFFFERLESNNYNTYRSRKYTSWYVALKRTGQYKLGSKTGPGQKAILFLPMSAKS
Chain of aFGF (P05230 whole entry, species assumed): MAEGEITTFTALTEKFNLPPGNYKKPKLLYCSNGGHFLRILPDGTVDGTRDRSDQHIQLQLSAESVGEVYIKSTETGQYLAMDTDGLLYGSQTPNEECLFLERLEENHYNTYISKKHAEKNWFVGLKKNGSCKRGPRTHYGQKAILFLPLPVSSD

Regarding `O=S(=O)(O)OC[C@H]1O[C@H](O[C@H]2[C@H](OS(=O)(=O)O)[C@@H](OS(=O)(=O)O)[C@@H](O[C@H]3[C@H](OS(=O)(=O)O)[C@@H](OS(=O)(=O)O)[C@@H](O[C@H]4[C@H](OS(=O)(=O)O)[C@@H](OS(=O)(=O)O)C(OS(=O)(=O)O)O[C@@H]4COS(=O)(=O)O)O[C@@H]3COS(=O)(=O)O)O[C@@H]2COS(=O)(=O)O)[C@H](OS(=O)(=O)O)[C@@H](OS(=O)(=O)O)[C@@H]1O[C@H]1O[C@H](COS(=O)(=O)O)[C@@H](O[C@H]2O[C@H](COS(=O)(=O)O)[C@@H](OS(=O)(=O)O)[C@H](OS(=O)(=O)O)[C@H]2OS(=O)(=O)O)[C@H](OS(=O)(=O)O)[C@H]1OS(=O)(=O)O` (some centres unmarked) [Maltohexaose 20/20], in [1] (Table 2), the “Anticoagulant Activity” value was 3.3%. The IC50 in assay [2] (read-out: IC50 Heparanase, Table 2) is 1.93 µM; in assay [3] (read-out: IC50 bFGF, Table 2) it was 2.08 µM; in assay [4] (read-out: IC50 aFGF, Table 2), 7.6 µM.

Regarding `C[C@]12C=CC(=O)C=C1CC[C@@H]1[C@@H]2[C@@H](O)C[C@@]2(C)[C@H]1CC[C@]2(O)C(=O)CO` [Prednisolone], the “Leukocyte Infiltrate in Air Pouch (% Control)” value turned out to be 56 ± 14% in assay [5] (Expt 1) and 44 ± 3% in [5] (Expt 2).

Consider `Cc1ccc(C(=O)Nc2ccc(S(=O)(=O)O)c3cc(S(=O)(=O)O)cc(S(=O)(=O)O)c23)cc1NC(=O)c1cccc(NC(=O)Nc2cccc(C(=O)Nc3cc(C(=O)Nc4ccc(S(=O)(=O)O)c5cc(S(=O)(=O)O)cc(S(=O)(=O)O)c45)ccc3C)c2)c1` [Suramin], for which, in assay [1] (Table 1), the “Anticoagulant Activity” value is 0.1%. In addition, the IC50 in assay [6] (Homo sapiens, Table 1, added at commencement of culture, read-out: 50% Inhibitory Concn, Angiogenesis) was found to be 50 µg/mL (≈ 38.5 µM). Besides, in [7], the “Metastasis (% Control)” value was 74 ± 8%. Further, the anti-angiogenic activity entry in [8] is “moderate anti-angiogenic and heparanase inhibitory activity”. Further, the heparanase inhibitory activity entry in [9] is “moderate anti-angiogenic and heparanase inhibitory activity”.

For the compound Galactotetraose, in assay [1] (Table 3), the “Anticoagulant Activity” value was determined as 1.0%. The “IC50 Heparanase” value in assay [2] (Table 3) came out at 3.5 µg/mL. Moreover, in assay [3] (Table 3), the “IC50 bFGF” value is 9 µg/mL.

For the compound Heparin, in [1] (Table 1), the “Anticoagulant Activity” value was found to be 100%. Further, the “50% Inhibitory Concn, Angiogenesis” value in assay [6] (Table 1, added at commencement of culture) was more than 2000 µg/mL. The “inhibition of human angiogenesis” value in assay [6] is given as “little anti-angiogenic activity”. Moreover, in [2] (Table 1), the “50% Inhibitory Concn, Heparanase” value came out at 1 µg/mL. The “Metastasis (% Control)” value in [7] was determined as 20 ± 3%.

Take Maltoheptaose: the “Anticoagulant Activity” value in assay [1] (Table 2) turned out to be 3.9%. In addition, in [2] (Table 2), the “IC50 Heparanase” value worked out at 3 µg/mL. Further, in assay [3] (Table 2), the “IC50 bFGF” value is 10 µg/mL. Further, the “IC50 aFGF” value in assay [4] (Table 2) worked out at 27 µg/mL.

Maltopentaose: in assay [1] (Table 2), the “Anticoagulant Activity” value was 3.2%. Moreover, the “inhibition of human angiogenesis” value in [6] was “potent antimetastatic and anti-angiogenic activity”. For the same compound, the “IC50 Heparanase” value in [2] (Table 2) turned out to be 4 µg/mL. Further, in [7] (in words), the antimetastatic activity result is “potent antimetastatic and anti-angiogenic activity”. Moreover, in assay [3] (Table 2), the “IC50 bFGF” value was 37.5 µg/mL. Besides, the “IC50 aFGF” value in assay [4] (Table 2) stood at 27 µg/mL.

With Maltotriose, in assay [1] (Table 2), the “Anticoagulant Activity” value amounted to 0.8%. Besides, the “IC50 Heparanase” value in assay [2] (Table 2) came out at 100 µg/mL. Besides, the heparanase inhibitory activity entry in assay [2] (in words) is given as “weakly inhibitory”. Moreover, in assay [3] (Table 2), the “IC50 bFGF” value turned out to be 145 µg/mL. The “IC50 aFGF” value in [4] (Table 2) worked out at 58.7 µg/mL.

Take Mannohexaose: the “Anticoagulant Activity” value in [1] (Table 3) turned out to be 0.8%. Further, the “IC50 Heparanase” value in assay [2] (Table 3) is 3 µg/mL. The “IC50 bFGF” value in assay [3] (Table 3) amounted to 11 µg/mL. The “IC50 aFGF” value in assay [4] (Table 3) was found to be 5 µg/mL.

As for Mannotetraose, in assay [1] (Table 3), the “Anticoagulant Activity” value was 0.4%. In assay [2] (Table 3), the “IC50 Heparanase” value is 6 µg/mL. Further, the “IC50 bFGF” value in [3] (Table 3) was found to be 20 µg/mL. For the same compound, the “IC50 aFGF” value in [4] (Table 3) is 5 µg/mL.

With Mannotriose, the “Anticoagulant Activity” value in [1] (Table 3) came out at 0.3%. The “IC50 Heparanase” value in [2] (Table 3) turned out to be 25 µg/mL.
